Measured values from paper PMC12313019, “Fibrotic lung ECM upregulates SDC4/integrin-αvβ1 interaction and the interfering peptide SDC4_87-131 and its derivative peptides alleviate pulmonary fibrosis” (Regenerative Biomaterials, 2025).
“Also recorded” adds a separate entry of the source.

What was measured:
integrin-αvβ1 = integrin-αvβ1 (Homo sapiens, UniProt P05556+P06756); assay: SPR binding of peptides to integrin-αvβ1 (Biacore 8K+); conditions: 25°C, Figure 7E
Procedure: The Biacore 8K+ system (GE Healthcare) was used at 25°C. The ligand integrin-αvβ1 (1 mg/mL) was routinely coupled to the sensor chip (Series S Sensor Chip CM5, Cytiva, #100530). The peptide samples SDC4_87-131 and CS-1, -2, -3, -4, -8, -9, -10 were dissolved in PBS, and then, the samples with different concentration gradients (0.78, 1.56, 3.125, 6.25, 12.5, 25, 50, 100 μM) were injected, respectively, under the driving of buffer PBST (PBS + 0.05% Tween-20). The signal intensity was quantified in relative units (RU), and binding affinity was determined using the dissociation constant (Kd). After the experiment, 10 mM glycine-HCl buffer solution (pH = 2) was selected to regenerate the chip surface.

pan-integrins = assay: FN-coating cell adhesion assay (pan-integrins activation); type: cell-based, mouse; conditions: 100 nM, n=5
Procedure: 10 μg/mL Fibronectin (Merck, #10838039001) was dissolved in serum-free DMEM medium and dropped into a 96-well plate, 50 μL per well. The plate was incubated at 4 °C overnight. After blocking with 3% bovine serum albumin at room temperature for 30 min, 4×10^4 cells were inoculated into each well. After incubation for 30 min, the cells were washed, fixed, and stained with crystal violet (5 mg/mL) for 30 min. Then after the crystal violet was dissolved, it was detected using an ELISA reader at 595 nm.

SDC4/integrin-αv = assay: Duolink-PLA, SDC4/integrin-αv interaction in BLM lung tissue; type: in vivo, mouse; conditions: SDC4_87-131 1 mg/kg ITD q3d; C8 10 mg/kg IP qd; Anti-SDC4(93-121) 8 mg/kg ITD day 3 and 10; n=5
Procedure: (§1) After the mice were anesthetized (1% sodium pentobarbital 50 mg/kg was injected intraperitoneally), 150 μL of bleomycin (BLM, 5 mg/mL, BIO-000001) was inhaled into the lungs of the mice by tracheal inhalation instillation. One day later, the mice were randomly divided into model and drug treatment groups, and the mice in the control group were only subjected to saline inhalation.
Cells or tissue slices were attached to slides, fixed and permeabilized and blocked with Duolink^TM (Merck, MO, USA) blocking buffer. Antibodies against the extracellular domain of SDC4 (5G9, mouse IgG, SCBT #sc-12766), integrin-αv (rabbit IgG, CST #4711) and integrin-β1 (rabbit IgG, CST #34971) were diluted and added to the samples and incubated overnight at 4°C. After washing, PLUS and MINUS (proximity ligation assay, PLA) probes were added to the samples and incubated at 37°C for 1 h. After washing, the samples were sequentially incubated with PLUS and MINUS (PLA) probes, ligation buffer and amplification buffer containing polymerase. Finally, the samples were mounted with in situ mounting medium containing DAPI. Images were acquired using a Leica SP5 confocal microscope (Leica Biosystems, Germany) and quantitative analysis was performed using ImageJ software.

[1] = test system: integrin-αvβ1, FAK/AKT, Smad2/3 and PKCα/NF-κB in BLM lung tissue; assay: BLM-induced PF in mice: Western blot of lung tissue; type: in vivo, mouse; conditions: n=3
Procedure: as §1
20 mg of lung tissue was extracted with RIPA lysis buffer (Roche International Ltd., Bermuda, USA), and the protein concentration was determined using a BCA protein detection kit (Roche). Protein samples were separated by 10% sodium dodecyl sulfate polyacrylamide gel (SDS-PAGE) electrophoresis and transferred to a PVDF membrane. After blocking, the PVDF membrane was incubated with primary antibodies for α-SMA, Integrin-αV, SDC4, Integrin-β1, p-Smad3, FAK, and p-FAK (CST, #19245, #4711, #12236S, #34971, #9520S, #3285S, and #3284S) at 4°C overnight, followed by incubation with secondary antibodies (CST, #7074P2), development with ECL reagent (SAB), and acquisition of images with a chemiluminescence imaging system (ChemiScope 5600).

integrin-β1 = assay: BLM-induced PF in mice: flow cytometry of integrin-β1 activation in lung tissue; type: in vivo, mouse
Procedure: as §1
The single cell suspension of mouse lung tissue was obtained by grinding. After the remaining red blood cells were lysed with ACK Lysis Buffer (TBD, NH4CL2009), 1×10^6 cells/100 μL of cells were added with Fixable Viability Stain 780 (BD, #565388). After incubation at room temperature in the dark for 10-15 min, the suspension was washed twice with PBS containing 1%-2% FBS. The FCR antibody TruStain FcX™ PLUS (BD, #156603) was added to the cell suspension at a ratio of 0.25 μL:100 μL and blocked on ice for 10 min. Then, the antibody was incubated at an appropriate concentration and time according to the manufacturer's instructions. Antibodies include CD45 (Biolegend, #157619), CD140a (Thermo Fisher, #25-1401-82), SDC-4 (Sino Biological, #50726-R112-P), SP-C (Bioss, #bs-10067R-FITC) and Integrin-β1 (9Eg7, BD, 553715), and AF647 anti-Rat (CST, #4418S) was used as the secondary antibody. After incubation, cells were washed and resuspended, and detected using LSRFortessaX-20 (BD).

BLM lung injury, mice = assay: BLM lung injury, subacute stage, HE staining; type: in vivo, mouse; conditions: 300 μg/kg, i.h., qd from 24 h after BLM, to day 15
Procedure: as §1
(A) Flow chart of animal experiments. SDC487-131 (300 μg/kg, i.h., qd) was administered starting 24 h after BLM modeling, and the experiment ended on the 15th day; (B) The pathological changes at the subacute stage of BLM lung injury were observed by HE staining (scale bar = 1000 μm, 50μm). […] To achieve better results, we used intratracheal instillation of SDC487-131 (1mg/kg, q3d).

cell migration = conditions: ref [39]; cited from earlier work
From the text: SDC4_87-131 is a synthetic peptide of the N87-M131 segment of the extracellular domain of SDC4 (Supplementary Figure S9A). […] Comparing the effects of ... || Syndecans and integrins collaboratively regulate FA formation and cell adhesion. PKCα is known to modulate integrin-mediated FAK phosphorylation and FA assembly. Inhibition of PKCα not only blocks NF-κB activation but also reduces FAK phosphorylation. Conversely, FAK activation can induce NF-κB activity, highlighting a bidirectional crosstalk between the SDC4/PKCα/NF-κB and integrin/FAK pathways.

Chain of integrin-αvβ1 (P06756 31-992 limits assumed): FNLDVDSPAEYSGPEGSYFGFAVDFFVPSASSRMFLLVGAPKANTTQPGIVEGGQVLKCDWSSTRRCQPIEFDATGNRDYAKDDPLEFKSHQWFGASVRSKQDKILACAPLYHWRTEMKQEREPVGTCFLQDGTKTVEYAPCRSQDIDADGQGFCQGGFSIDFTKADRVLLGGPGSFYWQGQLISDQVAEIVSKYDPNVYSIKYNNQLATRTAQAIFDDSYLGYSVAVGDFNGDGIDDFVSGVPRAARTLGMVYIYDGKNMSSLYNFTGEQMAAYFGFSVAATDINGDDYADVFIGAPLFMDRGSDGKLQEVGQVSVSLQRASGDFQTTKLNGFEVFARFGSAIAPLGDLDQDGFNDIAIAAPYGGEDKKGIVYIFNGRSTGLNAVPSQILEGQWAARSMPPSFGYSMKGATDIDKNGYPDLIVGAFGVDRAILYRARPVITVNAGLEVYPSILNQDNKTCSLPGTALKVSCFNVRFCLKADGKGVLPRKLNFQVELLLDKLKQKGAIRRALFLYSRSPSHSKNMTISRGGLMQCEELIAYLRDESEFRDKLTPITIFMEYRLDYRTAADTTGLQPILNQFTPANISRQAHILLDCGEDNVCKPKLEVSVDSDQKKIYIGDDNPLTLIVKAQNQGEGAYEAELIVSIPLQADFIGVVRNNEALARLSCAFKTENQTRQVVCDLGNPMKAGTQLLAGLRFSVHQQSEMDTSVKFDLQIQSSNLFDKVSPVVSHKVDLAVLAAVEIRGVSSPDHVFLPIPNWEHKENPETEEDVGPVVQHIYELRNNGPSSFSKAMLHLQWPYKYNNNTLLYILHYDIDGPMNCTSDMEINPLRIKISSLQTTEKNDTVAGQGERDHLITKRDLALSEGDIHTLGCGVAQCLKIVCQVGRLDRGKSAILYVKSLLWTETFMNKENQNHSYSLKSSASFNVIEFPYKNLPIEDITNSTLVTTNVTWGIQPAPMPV
Chain of integrin-αvβ1 (P05556 21-728 partner limits assumed): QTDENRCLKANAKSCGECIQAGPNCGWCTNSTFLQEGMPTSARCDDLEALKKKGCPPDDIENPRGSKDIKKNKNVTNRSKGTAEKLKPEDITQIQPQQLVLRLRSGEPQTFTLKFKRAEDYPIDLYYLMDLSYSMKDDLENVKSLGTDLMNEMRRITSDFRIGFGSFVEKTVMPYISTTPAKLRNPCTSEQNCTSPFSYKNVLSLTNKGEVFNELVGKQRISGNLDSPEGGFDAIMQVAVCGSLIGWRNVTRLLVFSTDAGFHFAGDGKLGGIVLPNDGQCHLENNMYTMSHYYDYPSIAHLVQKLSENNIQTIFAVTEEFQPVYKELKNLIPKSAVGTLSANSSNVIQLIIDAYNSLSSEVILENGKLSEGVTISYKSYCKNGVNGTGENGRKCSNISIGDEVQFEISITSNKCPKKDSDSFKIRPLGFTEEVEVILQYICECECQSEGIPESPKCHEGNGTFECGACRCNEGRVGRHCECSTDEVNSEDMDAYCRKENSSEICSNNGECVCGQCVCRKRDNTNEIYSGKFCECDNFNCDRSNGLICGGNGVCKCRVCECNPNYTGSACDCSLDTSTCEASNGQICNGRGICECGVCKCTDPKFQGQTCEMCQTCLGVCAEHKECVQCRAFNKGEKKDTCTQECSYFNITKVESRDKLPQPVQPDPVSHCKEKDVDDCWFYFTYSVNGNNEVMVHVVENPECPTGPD

Substance: Ac-NHIPERAGSGSQVPTEPKKLEENEVIPKRISPVEESEDVSNKVSM-NH2 [SDC4_87-131]
- affinity (in words) (integrin-αvβ1): nM level
- pan-integrins activation (pan-integrins): could inhibit pan-integrins activation
- interaction of integrin-αv and SDC4 in BLM lung tissue (SDC4/integrin-αv): could reduce the interaction of integrin-αv and SDC4
- expression level of integrin-αv ([1]; 1 mg/kg ITD q3d): significantly reduced the expression level of integrin-αv
- phosphorylation level of PKCα and nuclear content of NF-κB (p65) ([1]; SDC4_87-131 1 mg/kg, C8 10 mg/kg, Anti-SDC4(93-121) 8 mg/kg): could downregulate
- FAK/AKT phosphorylation [1]: inhibit FAK/AKT phosphorylation activation in both in vitro and in vivo experiments
- p-Smad2/3 effect vs C8 and Anti-SDC4 [1]: not significantly different from C8 and Anti-SDC4
- p-Smad2/3 protein levels [1]: reduced p-Smad2/3 protein levels
- integrin-β1 activation in nonimmune cells (CD45^-) (integrin-β1): abolished
- integrin-β1 activation effect vs C8 and Anti-SDC4(93-121) (integrin-β1; CD45^- cells): equivalent to the effects of C8 and Anti-SDC4(93-121)
- BLM lung injury, subacute stage (BLM lung injury, mice): can alleviate BLM lung injury in the subacute stage; also recorded: effective
- cell adhesion and migration (cell migration): reduces cell adhesion and migration
- cell migration (cell migration): can inhibit cell migration comparably to the exogenous full-length SDC4
